Measured values reported in the supplement of paper PMC10307832.

Legend:
Assay in all cases: relative viability (nuclei count vs DMSO), 5 days (fraction); higher = more cells survive
[1] = compound: C1CC(C1)(C(=O)O)C(=O)O.[NH2-].[NH2-].[Pt+2] [Carboplatin] + CC(=O)c1c(C)c2cnc(Nc3ccc(N4CCNCC4)cn3)nc2n(C2CCCC2)c1=O [Palbociclib] (partner 0.5 µM)
Method in brief: (§1)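 Each reported value is a median over duplicate plates. It expresses relative viability: treated-well nuclei count divided by vehicle-well nuclei count. Lung cancer cell lines in 1536-well plates were dosed by pin tool a day after seeding, alone with one drug or with a fixed anchor-drug dose plus five library-drug doses (not always all listed) in √10 steps, and nuclei were counted after 5 days.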

GSK126 + Olaparib = compound: CC[C@H](C)N1C=C(C2=C(C=C(C=C21)C3=CN=C(C=C3)N4CCNCC4)C(=O)NCC5=C(C=C(NC5=O)C)C)C [GSK126] + O=C(c1cc(Cc2n[nH]c(=O)c3ccccc23)ccc1F)N1CCN(C(=O)C2CC2)CC1 [Olaparib] (partner 8 µM)
Method in brief: as §1

MLN4924 + Phenformin = compound: NS(=O)(=O)OC[C@@H]1C[C@@H](n2ccc3c(N[C@H]4CCc5ccccc54)ncnc32)C[C@@H]1O [MLN4924] + N=C(N)NC(=N)NCCc1ccccc1 [Phenformin] (partner 250 µM)
Method in brief: as §1

GSK126 + Phenformin = compound: CC[C@H](C)N1C=C(C2=C(C=C(C=C21)C3=CN=C(C=C3)N4CCNCC4)C(=O)NCC5=C(C=C(NC5=O)C)C)C [GSK126] + N=C(N)NC(=N)NCCc1ccccc1 [Phenformin] (partner 250 µM)
Method in brief: as §1

Row | Cell Line | relative viability ([1]; first compound 0.08 µM) | relative viability ([1]; first compound 0.253 µM) | relative viability ([1]; first compound 0.8 µM) | relative viability ([1]; first compound 2.53 µM) | relative viability ([1]; first compound 8 µM) | relative viability (GSK126 + Olaparib; first compound 0.08 µM) | relative viability (GSK126 + Olaparib; first compound 0.253 µM) | relative viability (GSK126 + Olaparib; first compound 0.8 µM) | relative viability (GSK126 + Olaparib; first compound 2.53 µM) | relative viability (GSK126 + Olaparib; first compound 8 µM) | relative viability (MLN4924 + Phenformin; first compound 0.04 µM) | relative viability (MLN4924 + Phenformin; first compound 0.1265 µM) | relative viability (MLN4924 + Phenformin; first compound 0.4 µM) | relative viability (MLN4924 + Phenformin; first compound 1.265 µM) | relative viability (MLN4924 + Phenformin; first compound 4 µM) | relative viability (GSK126 + Phenformin; first compound 0.08 µM) | relative viability (GSK126 + Phenformin; first compound 0.253 µM) | relative viability (GSK126 + Phenformin; first compound 0.8 µM) | relative viability (GSK126 + Phenformin; first compound 2.53 µM) | relative viability (GSK126 + Phenformin; first compound 8 µM)
1 | NCI-H2170 | 0.39 | 0.411 | 0.384 | 0.379 | 0.342 | 0.603 | 0.669 | 0.559 | 0.54 | 0.529 | 0.359 | 0.305 | 0.214 | 0.183 | 0.185 | 0.386 | 0.427 | 0.393 | 0.391 | 0.376
2 | NCI-H322M | 0.496 | 0.476 | 0.472 | 0.45 | 0.507 | 0.818 | 0.807 | 0.806 | 0.829 | 0.78 | 0.908 | 0.65 | 0.473 | 0.248 | 0.306 | 0.826 | 0.787 | 0.849 | 0.875 | 0.817
3 | NCI-H2085 | 0.473 | 0.486 | 0.462 | 0.456 | 0.452 | 0.77 | 0.784 | 0.764 | 0.771 | 0.762 | 0.754 | 0.676 | 0.598 | 0.443 | 0.348 | 0.871 | 0.667 | 0.677 | 0.725 | 0.732
4 | PC-3 [JPC-3] | 0.537 | 0.577 | 0.511 | 0.526 | 0.512 | 1.1 | 1.14 | 1.09 | 1.15 | 1.12 | 0.482 | 0.482 | 0.404 | 0.323 | 0.341 | 0.478 | 0.489 | 0.48 | 0.456 | 0.489
5 | NCI-H1355 | 0.442 | 0.446 | 0.415 | 0.402 | 0.395 | 0.809 | 0.754 | 0.772 | 0.752 | 0.774 | 0.42 | 0.407 | 0.352 | 0.218 | 0.235 | 0.524 | 0.448 | 0.434 | 0.454 | 0.391
6 | NCI-H1650 | 0.321 | 0.341 | 0.359 | 0.349 | 0.251 | 0.742 | 0.849 | 0.761 | 0.784 | 0.901 | 0.398 | 0.339 | 0.231 | 0.146 | 0.198 | 0.531 | 0.404 | 0.44 | 0.361 | 0.358
7 | NCI-H838 | 0.213 | 0.238 | 0.212 | 0.224 | 0.261 | 0.82 | 0.817 | 0.738 | 0.714 | 0.769 | 0.538 | 0.319 | 0.263 | 0.127 | 0.128 | 0.652 | 0.468 | 0.522 | 0.487 | 0.555
8 | NCI-H1755 | 0.477 | 0.501 | 0.515 | 0.441 | 0.461 | 0.9 | 0.922 | 0.877 | 0.826 | 0.822 | 0.605 | 0.534 | 0.332 | 0.228 | 0.23 | 0.656 | 0.637 | 0.614 | 0.562 | 0.555
9 | NCI-H1651 | 0.514 | 0.488 | 0.507 | 0.498 | 0.413 | 0.183 | 0.175 | 0.176 | 0.178 | 0.161 | 0.347 | 0.317 | 0.313 | 0.171 | 0.157 | 0.369 | 0.268 | 0.354 | 0.313 | 0.364
10 | NCI-H650 | 0.318 | 0.337 | 0.332 | 0.276 | 0.232 | 0.446 | 0.373 | 0.363 | 0.405 | 0.389 | 0.355 | 0.287 | 0.224 | 0.197 | 0.199 | 0.431 | 0.464 | 0.445 | 0.437 | 0.472
11 | LK-2 | 0.619 | 0.824 | 0.796 | 0.789 | 0.658 | 0.904 | 0.71 | 0.727 | 0.859 | 0.689 | 0.312 | 0.31 | 0.262 | 0.167 | 0.173 | 0.658 | 0.522 | 0.454 | 0.334 | 0.352
12 | HCC-366 | 0.484 | 0.401 | 0.339 | 0.233 | 0.152 | 0.451 | 0.386 | 0.366 | 0.396 | 0.342 | 0.612 | 0.634 | 0.454 | 0.11 | 0.0866 | 0.687 | 0.641 | 0.574 | 0.644 | 0.543
13 | PC-14 | 0.552 | 0.509 | 0.411 | 0.239 | 0.117 | 0.348 | 0.295 | 0.335 | 0.354 | 0.396 | 0.473 | 0.564 | 0.37 | 0.151 | 0.127 | 0.554 | 0.611 | 0.667 | 0.651 | 0.565
14 | ChaGo-K-1 | 0.913 | 0.937 | 0.837 | 0.749 | 0.535 | 0.419 | 0.419 | 0.432 | 0.5 | 0.431 | 0.315 | 0.298 | 0.24 | 0.199 | 0.176 | 0.541 | 0.535 | 0.446 | 0.415 | 0.431
15 | NCI-H441 | 0.282 | 0.226 | 0.212 | 0.211 | 0.231 | 0.612 | 0.561 | 0.566 | 0.539 | 0.44 | 0.79 | 0.554 | 0.333 | 0.211 | 0.227 | 0.991 | 0.727 | 0.708 | 0.946 | 0.826
16 | NCI-H1395 | 0.703 | 0.679 | 0.547 | 0.487 | 0.535 | 0.468 | 0.465 | 0.438 | 0.456 | 0.414 | 0.447 | 0.499 | 0.481 | 0.382 | 0.357 | 0.487 | 0.446 | 0.43 | 0.506 | 0.474
